Earlier results, collected in patent publication US20170258815A1, “CORTICOSTEROID FORMULATIONS AND METHODS FOR THE TREATMENT OF JOINT PAIN IN PATIENTS WITH DIABETES” (Flexion Therapeutics, Inc., priority 2016, published 2017).

System: patients with controlled DM and OA of the knee

## CC(C)(C)CC(=O)OCC(=O)[C@@]12OC(C)(C)O[C@@H]1C[C@H]1[C@@H]3CCC4=CC(=O)C=C[C@]4(C)[C@@]3(F)[C@@H](O)C[C@@]12C [triamcinolone hexacetonide]
  Levels of blood glucose after IA injection compared with IA hyaluronic acid: significantly increased levels of blood glucose

## CC1(C)O[C@@H]2C[C@H]3[C@@H]4CCC5=CC(=O)C=C[C@]5(C)[C@@]4(F)[C@@H](O)C[C@]3(C)[C@]2(C(=O)CO)O1 [TCA, Triamcinolone acetonide]
  Levels of blood glucose after IA injection compared with IA hyaluronic acid: significantly increased levels of blood glucose
